Results as given in BigSolDB 2.1.

CCCCCCCCCCCC(=O)O
solubility (mole fraction)
Conditions | in ethanol | in isobutanol | in isopentanol | in methanol | in n-butanol | in n-hexanol | in n-pentanol | in n-propanol
276.17 K | 0.0422 | 0.0659 | 0.0814 | 0.0318 | 0.0646 | 0.0827 | 0.0742 | 0.054
279.16 K | 0.0554 | 0.0817 | 0.1 | 0.0419 | 0.0801 | 0.0991 | 0.0907 | 0.0685
282.16 K | 0.0739 | 0.102 | 0.122 | 0.0555 | 0.0999 | 0.122 | 0.113 | 0.0859
285.15 K | 0.0924 | 0.128 | 0.15 | 0.0723 | 0.123 | 0.151 | 0.137 | 0.108
288.15 K | 0.119 | 0.158 | 0.179 | 0.0942 | 0.151 | 0.183 | 0.167 | 0.135
291.14 K | 0.151 | 0.195 | 0.217 | 0.123 | 0.188 | 0.22 | 0.204 | 0.169
294.14 K | 0.194 | 0.238 | 0.263 | 0.161 | 0.229 | 0.266 | 0.247 | 0.21
297.13 K | 0.244 | 0.289 | 0.315 | 0.208 | 0.283 | 0.322 | 0.301 | 0.261
300.13 K | 0.305 | 0.351 | 0.376 | 0.264 | 0.338 | 0.39 | 0.368 | 0.319
303.12 K | 0.386 | 0.422 | 0.446 | 0.341 | 0.418 | 0.464 | 0.435 | 0.399
306.12 K | 0.482 | 0.514 | 0.537 | 0.433 | 0.51 | 0.549 | 0.53 | 0.488
